Source: US20240252677A1, “ONE-COMPONENT DELIVERY SYSTEM FOR NUCLEIC ACIDS” (The Trustees of the University of Pennsylvania, priority 2021, published 2024)
Read-outs that look alike come from different tables or passages of the source.

What was measured:
[1] = Dimensions (size, PDI) of DNPs co-assembled from IAJDs and Luc-mRNA by DLS; format: physicochemical
Procedure, shortened: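 IAJDs (80 mg/mL ethanol stock) rapidly injected into Luc-mRNA (4.0 mg/mL stock) diluted in 10 mM acetate buffer pH 4.0, then vortexed 5 s. Size and polydispersity of resulting DNPs measured by DLS (633 nm laser, 175° detection) at 23 °C.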

[2] = pKa measurements of individual IAJD molecules by titration; format: physicochemical; conditions: ethanol saturated with NaCl, titrated with 0.1 M aqueous HCl; Table 15; individual IAJD molecule, titration
Procedure, shortened: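 Compound dissolved at 1.5 mg/mL in NaCl-saturated ethanol and titrated with 0.1 M HCl in 7.5 μL steps, pH read by electrode after each addition. pKa taken from the half-equivalence point.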

liver = test: In vivo mRNA delivery, IVIS imaging of organs: liver; set-up: species or system mice; key to Organs with luminescence: liver: strong: Strong meant the luminescence intensity in that organ was relatively high, compared to other organs; weak: Weak meant the luminescence intensity in that organ was relatively low, compared to other organs; conditions: for Organs with luminescence: liver (weak/strong): Table 14; for Organs with luminescence: liver: Table 17, mice, IVIS, 4-6 h after injection, intensity relative to other organs
BALB/c mice = conditions: cited from earlier work
HEK293T cells = conditions: Table 16, IAJDs marked a (Zhang et al., J. Am. Chem. Soc. 2021); HEK 293T cells, 125 ng/well, n=3; cited from earlier work
spleen = test: In vivo mRNA delivery, IVIS imaging of organs: spleen; set-up: species or system mice; key to Organs with luminescence: spleen: strong: Strong meant the luminescence intensity in that organ was relatively high, compared to other organs; weak: Weak meant the luminescence intensity in that organ was relatively low, compared to other organs; conditions: for Organs with luminescence: spleen (weak/strong): Table 14; for Organs with luminescence: spleen: Table 17, mice, IVIS, 4-6 h after injection, intensity relative to other organs
[3] = Table 12, DNPs, IAJD 4 mg/mL + Luc-mRNA 0.10 mg/mL, acetate buffer 10 mM pH 4.0
[4] = Table 13, DNPs, IAJD 4 mg/mL + Luc-mRNA 0.10 mg/mL, acetate buffer pH 4.0
[5] = Table 14, DNPs, IAJD 4 mg/mL + Luc-mRNA 0.10 mg/mL, acetate buffer pH 4.0
[6] = Table 17, DNPs used in vivo, IAJD 4 mg/mL, Luc-mRNA 0.10 mg/mL, acetate pH 4.0

Structure (SMILES)	PDI [1, 3]	Size (d, nm) [1, 3] [nm]	PDI [1, 4]	Size (d, nm) [1, 4] [nm]	PDI [1, 5]	Size (d, nm) [1, 5] [nm]	PDI [1, 6]	Size (d, nm) [1, 6] [nm]	pKa [2]	Organs with luminescence: liver (weak/strong) (liver; imaging 5 h after injection)	Organs with luminescence: liver (liver)	In vivo activity (total flux, p/s) (BALB/c mice; Table 18, symmetric IAJDs, results available in the literature)	In vivo activity (total flux, p/s) (BALB/c mice; Table 20, corresponding symmetric IAJDs (literature per Table 18))	Luminescence (HEK293T cells)	Organs with luminescence: spleen (weak/strong) (spleen; imaging 5 h after injection)	Organs with luminescence: spleen (spleen)	Organs with luminescence: liver (weak/strong) (liver; imaging 6 h after injection)	Organs with luminescence: spleen (weak/strong) (spleen; imaging 6 h after injection)
CCCCCCCCCCCCOc1cc(COC(=O)CCCN2CCN(CCO)CC2)cc(OCCCCCCCCCCCC)c1 [IAJD 71, 3,5-Bis(dodecyloxy)benzyl 4-(4-(2-hydroxyethyl)piperazin-1-yl)butanoate]	0.451	237	0.451	237	0.451	237	0.451	237	6.38	liver (weak),	liver (weak),	3.79 × 10^7 p/s	3.79 × 10^7 p/s	473,548	spleen (strong)	spleen (strong)	–	–
CCCCCCCCCCCCCCCCOc1cc(COC(=O)CCCN2CCN(C)CC2)cc(OCCCCCCCCCCCC)c1 [IAJD 106, 3-(Dodecyloxy)-5-(hexadecyloxy)benzyl 4-(4-methylpiperazin-1-yl)butanoate]	0.275	105	0.275	105	0.275	105	0.275	105	6.38	–	liver (weak),	–	–	309	–	spleen (strong)	liver (weak),	spleen (strong)
CCCCCCCCCCCCCCCCCCOc1cc(COC(=O)CCCN2CCN(C)CC2)cc(OCCCCCCCCCCCC)c1 [IAJD 107, 3-(Dodecyloxy)-5-(octadecyloxy)benzyl 4-(4-methylpiperazin-1-yl)butanoate]	0.279	146	0.279	146	0.279	146	0.279	146	6.42	–	liver (weak),	–	–	93,745	–	spleen (strong)	liver (weak),	spleen (strong)
